Test [1] deals with fibroblasts (NIH/3T3). Put plainly: Scratching experiment, Hst1 cyclic peptides (Examples 11 and 12). Type of test: cell-based. The settings on record: dosage needed to achieve the same pharmaceutical effect in the scratch experiment. The procedure:
At the same time, fibroblasts (NIH/3T3; GNM 6; Chinese Academy of Sciences, China) were plated into a 6-well plate at a number of 2×10^6/well and cultured to a density of 70-80%. The cells were starved for 8-12 hours before the experiment. Mitomycin C (Sigma Aldrich, USA) was added into the culture medium to make its concentration in the culture medium be 15 μg/ml, and the culture medium was changed after 3 hours of treatment. Scratching was conducted with a 200 μl pipette tip perpendicular to the bottom of the well-plate with the same force, and the well-plate was rinsed with PBS twice after scratching. Each well was added with an appropriate amount of a DEME medium (10% FBS, 1% double antibody), and except for the blank control group, each well was added with 10 μM of the linear Hst1, 0.01 μM of the propynylglycine-Hst1 cyclic peptide, 0.1 μM of the propynylglycine-Hst1 cyclic peptide and 1 μM of the propynylglycine-Hst1 cyclic peptide as experimental groups. At 0 hour, the cells in each group were photographed by using a microscope (Olympus, Japan). […] The scratched area of each group was calculated by using imageJ (Rawak Software, Inc. Germany) software, and the scratch area at 0 hour was an initial scratch area. The scratch healing rate was calculated as follows: […]

The test system of test [2] is full-thickness skin defect wound surfaces. Put plainly: Effect of Hst1-MAD cyclic peptide on wound repair in mice (Example 22): healing rate, histology, immunohistochemistry, immunofluorescence double staining, Western Blot. Type of test: in vivo, C57 BL/6 mice. The procedure:
[…]. 36 healthy male special pathogen-free grade C57 BL/6 mice (purchased from Guangdong Experimental Animal Center) of 6-8 weeks old and weighing 22-28 g. They were intraperitoneally injected with 5 ml/kg of 1% pentobarbital sodium for anesthesia. After the mice had no corneal reflex, the hair on their backs was carefully removed and disinfected with alcohol. […] full-thickness skin defect wound surfaces were prepared on the back of each mouse by using a circular skin punch. […]. Each wound surface was added with 0.5 ml of four drugs respectively, and administration was conducted every day until the wound surfaces of the experimental groups healed. Photographs were taken on days 0, 3, 5, and 10 after surgery, and wound tissues were sampled on days 3, 5, and 10 for subsequent pathological staining.
was observed and photographed with a digital camera (see FIG. 19), and the wound healing rate was calculated (see FIG. 20). Wound healing rate=(wound area immediately after injury−unhealed wound area at each time point)÷wound area immediately after injury×100%.
The wound specimens were fixed in 4% paraformaldehyde for 48 hours, rinsed with tap water for 10 minutes, dehydrated with graded ethanol, permeabilized with xylene, and embedded in paraffin to prepare 4 μm thick sections. Some sections were taken and subjected to HE staining to detect an epidermal thickness and subjected to Masson staining to detect newly grown collagen. Through hematoxylin-cosin staining (HE), the effects of the four groups of drugs on newly grown epidermal at the wound surface on day 10 were evaluated (FIGS. 21 and 22). Through Masson staining, the effects of the four groups of drugs on newly grown collagen at the wound surface on days 5 and 10 were evaluated (FIGS. 23 and 24). 5 sections were taken from each mouse, and 5 fields of view were selected for each section. Data analysis was performed using the software Image-pro Plus.
and rehydrated, subjected to antigen thermal repair with a 0.1 mol/L citric acid buffer (with a pH value of 6.0) for 20 minutes, treated with hydrogen peroxide with a volume fraction of 10% for inactivation of endogenous peroxidase for 10 minutes, and blocked with 50 g/L of bovine serum albumin for 2 hours. It was added with a rabbit anti-mouse CD31 primary antibody (with a dilution ratio of 1:300) and a mouse anti-VEGF (with a dilution ratio of 1:100), incubated overnight at 4° C., and washed with PBS. It was rewarmed for 1 hour, washed with PBS, added dropwise with ready-to-use biotinylated goat anti-mouse and goat anti-rabbit IgG secondary antibodies, incubated for 2 hours, and washed with PBS. It was subjected to DAB development, hematoxylin counterstaining. gradient ethanol dehydration, xylene permeabilization, and resin blocking. 5 sections were taken from each mouse, and 5 fields of view were selected for each section. The sections were observed under a 400× inverted fluorescence microscope, and analyzed for the number of CD31-positive blood vessels (see FIG. 25) and VEGF expression amounts (see FIG. 26) by using Image-pro Plus software.
The specific steps were: the previous steps were the same as those of 1.3.3, and they were incubated with the antibodies MHCII (orb101661; 1:500; Biorbyt Biotechnology Co., Ltd., Wuhan, CN), CD11c (97585; 1:200; Cell Signaling Technology Inc., Boston, MA), CD68 (GB11067; 1:300; Servicebio Inc.), CD80 (GB11034; 1:300; Servicebio Inc.), CD206 (GB11062; 1:500; Servicebio Inc.), claudin1 (37-4900; 1:100; Thermo Fisher Scientific Co., Ltd, Shanghai, CN) and claudin2 (32-5600; 1:200; Thermo Fisher Scientific Co., Ltd.) at 4° C. overnight. The fluorescent-labeled secondary antibodies were incubated at room temperature for 1 h, followed by 4′,6-diamidino-2′-phenylindole (DAPI) (G1012; Google Biotechnology Co., Ltd., Wuhan, CN). The stained sections were photographed by using a fluorescence microscope (Nikon Eclipse TI-SR. Tokyo, Japan). […]
A general note: In western blotting, separated proteins are transferred to a membrane and probed.

Setting [3] is: day 3 after surgery, Western Blot, 10 μM Histatin1.
Where [4] appears, read: day 10, immunofluorescence, 1 μM Click-Hst1-MAD, 1 μM Hst1-MAD, 10 μM Histatin1.

With “Linear Hst1: linear peptide Hst1 (Histatin1), amino acid sequence SEQ ID NO.1”, the “Dosage of agents required for scratch test” value in test [1] worked out at 10 µM. In addition, the “number of M2 macrophages (CD68+ and CD206+)” value in test [2] (day 3, 1 μM Click-Hst1-MAD, 10 μM Hst1, M±SD) was 12.67±7.34. Moreover, in test [2] (setting [3]), the “expression level of HO-1 relative to the control group” value amounted to 1.80 times and the “expression level of Nrf2 relative to the control group” value is 1.27 times. For the same substance, in test [2] (day 3 after surgery, Western Blot, 10 μM Hst1), the “expression level of NQO1 relative to the control group” value is 2.08 times. Also, in test [2] (day 3 after surgery, 10 μM Hst1, 1 μM Click-Hst1-MAD), the “number of dendritic cells (MHCII+ and CD11c+) relative to the control group” value amounted to 1.75 times. The VEGF expression amount result in test [2] (day 5, 1 μM Click-Hst1-MAD, 10 μM Histatin1, 1 μM Hst1-MAD compared with each other) is “comparable”. In test [2] (day 5, 1 μM Hst1-MAD and 10 μM Histatin1 compared with each other), the “expression levels of the dermal collagen” value is on record as “equivalent”. Besides, in test [2] (setting [4]), the Claudin1 expression intensity entry was “equivalent expression level of Claudin1” and the Claudin2 expression intensity result is “no obvious effect on promoting Claudin2 expression”. In test [2] (day 10, 1 μM Click-Hst1-MAD, 10 μM Histatin1), the VEGF expression amount entry is “higher”. For the same substance, in test [2] (days 3 and 5 evaluated, 1 μM Click-Hst1-MAD, 1 μM Hst1-MAD, 10 μM Histatin1), the “number of dendritic cells (MHCII+ and CD11c+)” value is listed as “significantly higher than that in the Control group”. In addition, in test [2] (days 3 and 5 evaluated, 1 μM Hst1-MAD, 10 μM Histatin1), the “number of M1 macrophages (CD68+ and CD80+)” value was “lower than that in the Control group”. Further, in test [2] (days 5 and 10, immunohistochemistry, 1 μM Click-Hst1-MAD, 1 μM Hst1-MAD, 10 μM Histatin1), the “number of CD31-positive blood vessels” value is given as “significantly higher than that in the Control group”.

The values above are taken from US20240336658A1, “CYCLIC PEPTIDE AND PREPARATION METHOD AND USE THEREOF” (HANGZHOU HUIBO SCIENCE AND TECHNOLOGY CO., LTD, priority 2021, published 2024).
